# Patent publication US20200138802A1, “Aggressive Lipid Lowering Therapy in Coronary Artery Disease” (Kowa Company, Ltd., priority 2018, published 2020)
# What was measured:
# [1] = Randomized open-label phase 4 trial of pitavastatin 4 mg/day versus 1 mg/day in Japanese patients with stable coronary artery disease; type: in vivo, human
# Description: This study was a prospective, multicenter, randomized, open-label, blinded-endpoint, physician-initiated phase 4 trial designed to investigate whether high-dose statin therapy could reduce CV events in patients with stable CAD as compared with low-dose statin therapy. We hypothesized that aggressive lipid lowering treatment with pitavastatin 4 mg/day would reduce the incidence of the composite endpoint comprised of CV death, non-fatal myocardial infarction (MI), non-fatal ischemic stroke, and unstable angina requiring emergency hospitalization. The control group received pitavastatin 1 mg/day.
# Men and women aged 20 to 80 years with clinically evident stable CAD and elevated LDL-C were eligible for this study. CAD was defined as 1) previous ACS, such as acute myocardial infarction or unstable angina; 2) a previous coronary revascularization procedure (PCI or coronary artery bypass grafting (“CABG”)); or 3) atherosclerotic CAD detected by coronary artery angiography with at least 75% stenosis in major epicardial coronary arteries (American Heart Association classification). (30) Patients with elevated LDL-C at entry were defined as (1) patients not receiving chronic lipid-lowering therapy with LDL-C≥140 mg/dL, (2) patients with LDL-C≥100 mg/dL and considered by the attending physician to need lipid-lowering therapy, or (3) patients being treated with lipid-lowering therapy.
# Exclusion criteria included (1) any planned coronary revascularization procedure, (2) active malignancy, (3) contraindication for pitavastatin (hypersensitivity to pitavastatin, severe liver disease or hepatic dysfunction, concurrent cyclosporine use, or suspected or confirmed pregnancy or current breastfeeding), (4) severe congestive heart failure (ejection fraction<30% or NYHA class≥3), (5) current hemodialysis, (6) familial hypercholesterolemia, (7) current participation in another clinical trial, (8) current use of any prohibited drug (lipid-lowering drug other than pitavastatin) that could not be discontinued during the study, and (9) any other finding that would make the patient unsuitable for this study in the opinion of the investigators.
# Participants were recruited at 733 hospitals in Japan. During screening visits, informed consent and baseline medical history were obtained, and a clinical examination and laboratory testing were performed. Blood samples were collected to determine fasting lipid levels and the patient's standard clinical profile. After discontinuation of all previous lipid-lowering therapies, all eligible patients started receiving treatment with pitavastatin 1 mg/day on an open-label basis for at least 1 month (run-in period). At the end of the run-in period (week 0), those patients with LDL-C levels below 120 mg/dL, measured by a central laboratory using Friedwald's formula, were eligible for randomization. Patients with prior ACS or coronary revascularization could be randomized beyond 3 months after the index event. Randomization was not allowed for patients with poor adherence (less than 50%) for the study drug during the run-in period or for patients with the primary endpoint events during the run-in period.
# Patients were randomized in a 1:1 ratio to either pitavastatin 4 mg or pitavastatin 1 mg once daily. Randomized treatment assignment was stratified by 5 factors: 1) institution, 2) prior statin use, 3) age (<65 or ≥65), 4) diabetes, and 5) sex. Patients were to be followed for 3 years, and study visits were scheduled at 6 months for the first visit and every year thereafter. At each visit, information on vital signs, clinical endpoints, adverse events, and concurrent medication was collected. In addition, physical examinations and electrocardiograms were performed and blood specimens were collected at 6 months and every 12 months thereafter for lipid and other laboratory tests. […]
# [2] = 4 mg of pitavastatin; cited from earlier work
smiles,measurement,setting,value
O=C(O)C[C@H](O)C[C@H](O)/C=C/c1c(C2CC2)nc2ccccc2c1-c1ccc(F)cc1 [pitavastatin],"incidence rates of individual CV events: death from any cause, myocardial infarction, and coronary revascularization results","[1]; 1 mg and 4 mg pitavastatin groups, FIG. 8",positive
same,LDL-C,"[1]; patients converted from 1 mg dose to 4 mg dose of pitavastatin, stable CAD, FIG. 2",statistically significant reduction
same,HDL-C,"[1]; patients converted from 1 mg dose to 4 mg dose of pitavastatin, stable CAD, FIG. 3",numerically superior increase
same,TG,"[1]; patients converted from 1 mg dose to 4 mg dose of pitavastatin, stable CAD, FIG. 4",statistically significant reduction
same,hs-CGP,"[1]; patients converted from 1 mg dose to 4 mg dose of pitavastatin, stable CAD, FIG. 5",statistically significant reduction
same,"primary clinical endpoint (composite of CV death, MI, ischemic stroke and UA)","[1]; patients converted from 1 mg dose to 4 mg dose of pitavastatin, stable CAD, FIG. 6",statistically significant reduction
same,secondary clinical endpoint (primary endpoint+coronary revascularization),"[1]; patients converted from 1 mg dose to 4 mg dose of pitavastatin, stable CAD, FIG. 7",statistically significant reduction
same,effect of LDL-C status (≥95 mg/dL or <95 mg/dL) on primary endpoint incidence rates,"[1]; subgroup analysis, 1 mg versus 4 mg pitavastatin, FIG. 9",did not affect the results
same,reduction of LDL-C from baseline,[2],42.9%
